Paper PMC3433420 (PLoS ONE, 2012)
Residues, ends and D or L forms follow the SMILES beside them.

Legend:
Test in all cases: In-house protein microarrays (with or without 5 mM DTT), protein named per line
Format in all cases: binding
SH2 and PTB domains [1] = target: T1, SH2 and PTB domains (Homo sapiens, UniProt P42680); conditions: protein TEC
T1 construct: thioredoxin; made in house; host or cells: BL21(DE3)pLysS E. coli
T1 sequence (P42680 1-631): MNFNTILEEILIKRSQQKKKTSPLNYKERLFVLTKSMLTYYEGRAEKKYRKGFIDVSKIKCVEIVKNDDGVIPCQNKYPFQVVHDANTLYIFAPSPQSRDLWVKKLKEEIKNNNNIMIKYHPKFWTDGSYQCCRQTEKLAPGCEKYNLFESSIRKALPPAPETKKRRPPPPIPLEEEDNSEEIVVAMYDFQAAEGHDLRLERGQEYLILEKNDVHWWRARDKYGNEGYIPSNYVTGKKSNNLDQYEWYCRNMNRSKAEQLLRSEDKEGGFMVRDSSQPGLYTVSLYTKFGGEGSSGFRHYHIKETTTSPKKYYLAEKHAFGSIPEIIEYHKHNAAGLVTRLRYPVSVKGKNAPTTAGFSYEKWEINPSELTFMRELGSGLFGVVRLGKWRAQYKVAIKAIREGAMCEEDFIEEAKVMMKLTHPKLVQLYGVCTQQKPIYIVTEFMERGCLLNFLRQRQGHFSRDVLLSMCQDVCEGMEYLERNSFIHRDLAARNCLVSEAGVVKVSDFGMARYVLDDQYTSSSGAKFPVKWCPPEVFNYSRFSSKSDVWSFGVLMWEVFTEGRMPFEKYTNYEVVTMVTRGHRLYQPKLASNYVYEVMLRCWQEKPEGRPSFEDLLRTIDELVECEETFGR
In short: (§1)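 KD values come from rhodamine fluorescence of duplicate spots after subtraction of a thioredoxin control. Domains were printed at ~40 µM on aldehyde slides, blocked 1 h at room temperature in pH 7.8 HEPES/KCl buffer with 5 mM DTT and 1% BSA, then peptide-probed.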

SH2 and PTB domains [2] = target: T2, SH2 and PTB domains (Homo sapiens, UniProt P52735); conditions: protein VAV2
T2 construct: thioredoxin; made in house; host or cells: BL21(DE3)pLysS E. coli
T2 sequence (P52735 1-878): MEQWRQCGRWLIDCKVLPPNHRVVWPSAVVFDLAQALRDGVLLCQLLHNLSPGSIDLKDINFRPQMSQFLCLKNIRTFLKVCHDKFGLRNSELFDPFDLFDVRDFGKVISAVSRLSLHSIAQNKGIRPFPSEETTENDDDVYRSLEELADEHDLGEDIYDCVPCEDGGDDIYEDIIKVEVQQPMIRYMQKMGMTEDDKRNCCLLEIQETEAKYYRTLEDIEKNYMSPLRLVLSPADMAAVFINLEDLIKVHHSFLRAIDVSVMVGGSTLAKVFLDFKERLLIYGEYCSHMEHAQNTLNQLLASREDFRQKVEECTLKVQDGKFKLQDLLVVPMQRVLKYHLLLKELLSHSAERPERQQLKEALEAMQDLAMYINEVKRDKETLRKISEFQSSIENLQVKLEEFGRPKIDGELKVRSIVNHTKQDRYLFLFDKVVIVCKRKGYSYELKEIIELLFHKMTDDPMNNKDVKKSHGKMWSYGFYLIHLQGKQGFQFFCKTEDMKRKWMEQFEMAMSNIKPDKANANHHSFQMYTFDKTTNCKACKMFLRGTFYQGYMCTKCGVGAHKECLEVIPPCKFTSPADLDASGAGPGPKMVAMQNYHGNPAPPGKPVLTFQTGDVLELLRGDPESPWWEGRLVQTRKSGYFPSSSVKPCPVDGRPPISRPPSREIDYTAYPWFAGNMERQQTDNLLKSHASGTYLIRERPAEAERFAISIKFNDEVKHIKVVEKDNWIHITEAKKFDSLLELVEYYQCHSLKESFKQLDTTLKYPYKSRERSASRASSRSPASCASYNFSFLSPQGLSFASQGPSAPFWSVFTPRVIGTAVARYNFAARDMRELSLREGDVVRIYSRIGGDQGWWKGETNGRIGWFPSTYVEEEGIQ
In short: as §1

SH2 and PTB domains [3] = target: T3, SH2 and PTB domains (Homo sapiens, UniProt P46109); conditions: protein CRKL
T3 construct: thioredoxin; made in house; host or cells: BL21(DE3)pLysS E. coli
In short: as §1

SH2 and PTB domains [4] = target: T4, SH2 and PTB domains (Homo sapiens, UniProt P00519); conditions: protein ABL1
T4 construct: thioredoxin; made in house; host or cells: BL21(DE3)pLysS E. coli
In short: as §1

SH2 and PTB domains [5] = target: T5, SH2 and PTB domains (Homo sapiens, UniProt P42684); conditions: protein ABL2
T5 construct: thioredoxin; made in house; host or cells: BL21(DE3)pLysS E. coli
In short: as §1

SH2 and PTB domains [6] = target: T6, SH2 and PTB domains (Homo sapiens, UniProt Q7M4L6); conditions: protein SHF
T6 construct: thioredoxin; made in house; host or cells: BL21(DE3)pLysS E. coli
In short: as §1

[7] = PM assay replicate # 39336, array fabrication # 39329
[8] = PM assay replicate # 39337, array fabrication # 39329
[9] = PM assay replicate # 39307, array fabrication # 39286

T4 sequence (P00519 whole entry, the tested form may be a part): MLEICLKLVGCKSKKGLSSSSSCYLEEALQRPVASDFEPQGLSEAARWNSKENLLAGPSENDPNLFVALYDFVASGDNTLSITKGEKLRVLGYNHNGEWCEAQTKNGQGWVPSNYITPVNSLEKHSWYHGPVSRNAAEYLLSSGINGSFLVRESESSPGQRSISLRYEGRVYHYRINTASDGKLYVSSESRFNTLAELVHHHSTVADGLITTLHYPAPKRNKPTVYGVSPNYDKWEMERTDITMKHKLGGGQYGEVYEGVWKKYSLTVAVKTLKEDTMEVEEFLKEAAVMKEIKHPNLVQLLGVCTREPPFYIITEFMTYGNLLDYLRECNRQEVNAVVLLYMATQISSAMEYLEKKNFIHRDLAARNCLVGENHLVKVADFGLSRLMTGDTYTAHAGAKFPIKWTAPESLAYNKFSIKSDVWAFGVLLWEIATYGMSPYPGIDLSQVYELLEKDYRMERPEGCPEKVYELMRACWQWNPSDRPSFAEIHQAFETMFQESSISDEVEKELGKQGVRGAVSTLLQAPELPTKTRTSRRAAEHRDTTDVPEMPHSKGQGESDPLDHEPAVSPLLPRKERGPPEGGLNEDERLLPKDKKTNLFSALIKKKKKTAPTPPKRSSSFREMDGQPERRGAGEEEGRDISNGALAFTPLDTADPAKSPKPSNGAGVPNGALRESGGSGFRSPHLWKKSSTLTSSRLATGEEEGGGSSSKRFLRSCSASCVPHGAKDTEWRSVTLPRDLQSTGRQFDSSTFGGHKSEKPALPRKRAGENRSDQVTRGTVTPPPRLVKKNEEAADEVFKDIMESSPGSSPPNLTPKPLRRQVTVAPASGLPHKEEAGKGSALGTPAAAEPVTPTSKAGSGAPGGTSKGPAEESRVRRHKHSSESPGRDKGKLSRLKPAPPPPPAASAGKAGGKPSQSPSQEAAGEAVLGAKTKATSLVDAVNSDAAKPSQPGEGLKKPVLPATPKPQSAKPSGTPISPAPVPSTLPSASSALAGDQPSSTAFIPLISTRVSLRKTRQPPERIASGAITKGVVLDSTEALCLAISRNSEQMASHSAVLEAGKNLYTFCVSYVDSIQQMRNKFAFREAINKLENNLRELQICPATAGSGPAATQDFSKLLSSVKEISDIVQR
T3 sequence (P46109 whole entry, the tested form may be a part): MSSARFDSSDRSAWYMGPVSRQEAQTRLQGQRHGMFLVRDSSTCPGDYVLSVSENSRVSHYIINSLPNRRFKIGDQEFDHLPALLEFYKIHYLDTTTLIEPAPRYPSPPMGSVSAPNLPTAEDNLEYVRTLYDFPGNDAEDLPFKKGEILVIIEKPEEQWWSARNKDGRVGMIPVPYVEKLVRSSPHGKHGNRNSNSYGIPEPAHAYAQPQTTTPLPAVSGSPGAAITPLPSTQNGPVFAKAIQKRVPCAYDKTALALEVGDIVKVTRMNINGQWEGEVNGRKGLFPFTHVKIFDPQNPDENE
T5 sequence (P42684 whole entry, the tested form may be a part): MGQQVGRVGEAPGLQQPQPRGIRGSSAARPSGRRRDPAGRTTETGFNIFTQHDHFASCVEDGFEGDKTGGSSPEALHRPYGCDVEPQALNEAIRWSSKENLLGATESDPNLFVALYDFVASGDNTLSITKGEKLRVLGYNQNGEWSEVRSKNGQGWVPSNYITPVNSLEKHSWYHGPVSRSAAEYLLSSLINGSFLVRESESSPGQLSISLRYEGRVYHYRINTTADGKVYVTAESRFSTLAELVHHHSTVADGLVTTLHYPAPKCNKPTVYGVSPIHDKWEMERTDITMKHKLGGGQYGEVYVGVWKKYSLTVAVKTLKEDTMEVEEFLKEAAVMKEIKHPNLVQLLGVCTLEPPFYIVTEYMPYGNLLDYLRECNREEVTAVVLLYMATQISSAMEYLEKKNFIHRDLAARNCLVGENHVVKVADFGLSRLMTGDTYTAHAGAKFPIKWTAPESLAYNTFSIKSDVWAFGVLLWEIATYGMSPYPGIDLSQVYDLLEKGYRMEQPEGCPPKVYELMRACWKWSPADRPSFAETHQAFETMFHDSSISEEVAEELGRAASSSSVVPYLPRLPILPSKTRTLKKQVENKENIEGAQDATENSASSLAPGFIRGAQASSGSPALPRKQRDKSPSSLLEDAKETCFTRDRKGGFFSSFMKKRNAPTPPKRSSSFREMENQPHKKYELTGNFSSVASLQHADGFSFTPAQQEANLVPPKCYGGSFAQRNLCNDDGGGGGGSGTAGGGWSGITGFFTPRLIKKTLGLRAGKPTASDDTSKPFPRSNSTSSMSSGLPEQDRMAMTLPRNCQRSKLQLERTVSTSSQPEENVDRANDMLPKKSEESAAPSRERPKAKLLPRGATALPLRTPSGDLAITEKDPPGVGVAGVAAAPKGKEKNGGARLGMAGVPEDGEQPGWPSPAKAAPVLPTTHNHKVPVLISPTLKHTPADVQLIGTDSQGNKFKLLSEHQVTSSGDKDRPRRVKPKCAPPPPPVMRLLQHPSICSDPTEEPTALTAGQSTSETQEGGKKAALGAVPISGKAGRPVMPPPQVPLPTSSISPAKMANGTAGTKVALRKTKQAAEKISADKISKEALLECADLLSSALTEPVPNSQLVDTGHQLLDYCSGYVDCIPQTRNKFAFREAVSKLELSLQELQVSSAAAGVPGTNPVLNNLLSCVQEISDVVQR
T6 sequence (Q7M4L6 whole entry, the tested form may be a part): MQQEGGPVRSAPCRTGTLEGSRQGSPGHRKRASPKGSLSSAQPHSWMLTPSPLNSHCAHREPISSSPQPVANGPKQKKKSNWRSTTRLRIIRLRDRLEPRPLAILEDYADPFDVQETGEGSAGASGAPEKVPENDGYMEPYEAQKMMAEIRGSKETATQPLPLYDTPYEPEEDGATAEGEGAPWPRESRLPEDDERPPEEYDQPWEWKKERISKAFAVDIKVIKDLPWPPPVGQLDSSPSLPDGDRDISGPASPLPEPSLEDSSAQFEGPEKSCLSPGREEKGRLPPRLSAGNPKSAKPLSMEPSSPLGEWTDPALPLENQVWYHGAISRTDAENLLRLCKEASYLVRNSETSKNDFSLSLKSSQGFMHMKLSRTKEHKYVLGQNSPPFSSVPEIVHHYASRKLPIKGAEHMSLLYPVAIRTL

Compound: CC(C)C[C@H](NC(=O)[C@@H]1CCCN1)C(=O)N[C@@H](CCC(N)=O)C(=O)N[C@@H](CCCNC(=N)N)C(=O)N[C@@H](Cc1ccc(OP(=O)(O)O)cc1)C(=O)N[C@@H](CO)C(=O)N[C@@H](CCC(=O)O)C(=O)N[C@@H](CC(=O)O)C(=O)N1CCC[C@H]1C(=O)N[C@H](C(=O)N[C@H](C(=O)N1CCC[C@H]1C(=O)N[C@@H](CC(=O)O)C(=O)O)C(C)C)[C@@H](C)O [ErbB2 pY1112] (HELM PEPTIDE1{P.L.Q.R.[O=C([C@H](Cc1ccc(OP(=O)(O)O)cc1)N[*:1])[*:2]].S.E.D.P.T.V.P.D}$$$$V2.0)
- Kd (SH2 and PTB domains [1]; PM assay replicate # 39331, array fabrication # 39329): 26.53 µM
- Kd (SH2 and PTB domains [1]; [7]): 5.07 µM

Compound: CC(C)C[C@H](NC(=O)[C@@H]1CCCN1C(=O)[C@H](C)NC(=O)[C@@H](NC(=O)[C@H](Cc1ccc(OP(=O)(O)O)cc1)NC(=O)CNC(=O)[C@H](CC(=O)O)NC(=O)[C@@H](NC(=O)[C@@H](N)CCC(=O)O)[C@@H](C)O)C(C)C)C(=O)N[C@H](C(=O)N[C@@H](CS)C(=O)N[C@@H](CO)C(=O)N[C@@H](CC(=O)O)C(=O)O)[C@@H](C)O [ErbB2 pY1127]
- Kd (SH2 and PTB domains [2]; [7]): 1.59 µM
- Kd (SH2 and PTB domains [2]; [8]): 0.17 µM
- Kd (SH2 and PTB domains [3]; [7]): 4.80 µM
- Kd (SH2 and PTB domains [3]; [8]): 0.64 µM
- Kd (SH2 and PTB domains [4]; [7]): 0.30 µM
- Kd (SH2 and PTB domains [4]; [8]): 0.53 µM
- Kd (SH2 and PTB domains [1]; [7]): 1.60 µM
- Kd (SH2 and PTB domains [1]; [8]): 0.04 µM
- Kd (SH2 and PTB domains [1]; PM assay replicate # 39603, array fabrication # 39392): 0.25 µM

Compound: CCN(CC)c1ccc2c(-c3ccc(C(=O)N[C@@H](CC(N)=O)C(=O)NCC(=O)N4CCC[C@H]4C(=O)N4CCC[C@H]4C(=O)N[C@@H](CCCCN)C(=O)N[C@@H](C)C(=O)N[C@@H](CCC(=O)O)C(=O)N[C@@H](CC(=O)O)C(=O)N[C@@H](CCC(=O)O)C(=O)N[C@@H](Cc4ccc(OP(=O)(O)O)cc4)C(=O)N[C@H](C(=O)N[C@@H](CC(N)=O)C(=O)N[C@@H](CCC(=O)O)C(=O)N4CCC[C@H]4C(=O)N[C@@H](CC(C)C)C(=O)N[C@@H](Cc4ccc(O)cc4)C(=O)N[C@@H](CC(C)C)C(=O)N[C@@H](CC(=O)O)C(=O)O)C(C)C)cc3C(=O)[O-])c3ccc(=[N+](CC)CC)cc-3oc2c1 [ErbB4 1202 (18-mer)] (HELM PEPTIDE1{[CCN(CC)c1ccc2c(-c3ccc(C(=O)[*:2])cc3C(=O)[O-])c3ccc(=[N+](CC)CC)cc-3oc2c1].N.G.P.P.K.A.E.D.E.[O=C([C@H](Cc1ccc(OP(=O)(O)O)cc1)N[*:1])[*:2]].V.N.E.P.L.Y.L.D}$$$$V2.0)
- Kd (SH2 and PTB domains [5]; [9]): 1.00 µM
- Kd (SH2 and PTB domains [5]; [8]): 0.97 µM
- Kd (SH2 and PTB domains [2]; [9]): 9.50 µM
- Kd (SH2 and PTB domains [6]; [8]): 11.92 µM

Compound: CC[C@H](C)[C@H](NC(=O)[C@H](CC(N)=O)NC(=O)[C@H](CC(N)=O)NC(=O)[C@H](CCCCN)NC(=O)[C@H](CC(C)C)NC(=O)[C@H](Cc1ccc(OP(=O)(O)O)cc1)NC(=O)[C@H](CCC(=O)O)NC(=O)[C@H](C)NC(=O)[C@H](CCCCN)NC(=O)CNC(=O)[C@H](CC(C)C)NC(=O)[C@@H](NC(=O)[C@H](CC(N)=O)NC(=O)[C@H](C)NC(=O)[C@@H](N)Cc1ccccc1)[C@@H](C)O)C(=O)N[C@@H](CC(C)C)C(=O)N[C@@H](CO)C(=O)N[C@@H](CC(=O)O)C(=O)O [ErbB4 pY1221 (18-mer)] (HELM PEPTIDE1{F.A.N.T.L.G.K.A.E.[O=C([C@H](Cc1ccc(OP(=O)(O)O)cc1)N[*:1])[*:2]].L.K.N.N.I.L.S.D}$$$$V2.0)
- Kd (SH2 and PTB domains [5]; [9]): 0.28 µM
- Kd (SH2 and PTB domains [5]; PM assay replicate # 39352, array fabrication # 39336): 0.91 µM
- Kd (SH2 and PTB domains [3]; [9]): 0.11 µM
- Kd (SH2 and PTB domains [4]; [9]): 0.25 µM
- Kd (SH2 and PTB domains [6]; [9]): 1.19 µM
